Measurements: US7144880B2, “Compositions relating to novel compounds and targets thereof” (Regents of the University of Michigan, priority 2003, dated 2006)
Read-outs that look alike come from different tables or passages of the source.

Assays:
[1] = biological target: T1, mitochondrial F1F0-ATPase (Bos taurus, UniProt P13621); assay: ATPase activity in sub-mitochondrial particles (SMPs); assay type: biochemical, bovine; conditions: 80 μM
T1 construct: from tissue
Excerpt: Oligomycin, a macrolide natural product that binds to the mitochondrial F1F0-ATPase, induces a state 3 to 4 transition and generates O2^− like Bz-423. Based on these similarities, it is possible that the F1F0-ATPase is also the molecular target for Bz-423. To test this hypothesis, the effect of Bz-423 on ATPase activity in sub-mitochondrial particles (SMPs) was examined.
>40 derivatives of Bz-423 were developed to determine the elements on this novel agent required for biological activity. […] The potency of these analogues in cell based assays correlated with the ED50 values in ATPase inhibition experiments using SMPs.

[2] = system: Ramos B cells; assay: cells; assay type: cell-based, human
Experimental: Cell viability is assessed by staining with propidium iodide (PI, 1 μg/mL). PI fluorescence is measured using a FACScalibur flow cytometer (Becton Dickinson, San Diego, Calif.). Measurement of hypodiploid DNA is conducted after incubating cells in DNA-labeling solution (50 μg/mL of PI in PBS containing 0.2% Triton and 10 μg/mL RNAse A) overnight at 4 degrees C. The data is analyzed using the CellQuest software excluding aggregates.

[3] = system: isolated rat liver mitochondria; assay: ROS production in isolated mitochondria (DCFH oxidation to DCF); assay type: biochemical
Experimental: Male Long Evans rats are starved overnight and sacrificed by decapitation. Liver samples are homogenized in ice cold buffer A (250 mM sucrose, 10 mM Tris, 0.1 mM EGTA, pH 7.4), and nuclei and cellular debris are pelleted (10 min, 830 g, 4° C.). Mitochondria are collected by centrifugation (10 min, 15,000 g, 4° C.), and the supernatant is collected as the S15 fraction. The mitochondrial pellet is washed three times with buffer B (250 mM sucrose, 10 mM Tris, pH 7.4), and re-suspended in buffer B at 20–30 mg/mL. Mitochondria are diluted (0.5 mg/mL) in buffer C (200 mM sucrose, 10 mM Tris, pH 7.4, 1 mM KH2PO4, 10 μM EGTA, 2.5 μM rotenone, 5 mM succinate) containing 2′,7′-dichlorodihydrofluorescin diacetate (DCFH-DA, 1 μM). For state 3 measurements, ADP (2 mM) is included in the buffer, and prior to the addition of Bz-423, mitochondria are allowed to charge for 2 min. To induce state 4, oligomycin (10 μM) is added to buffer C. […] To detect effects on O2^− and delta ψm, mitochondria are incubated for 15 min at 37° C. in buffer C with vehicle, Bz-423, or CCCP containing DHE (5 μM) or DIOC6(3) (20 nM), and aliquots are removed for analysis by fluorescence microscopy.
O2^− production by Bz-423 may result from binding to a protein within mitochondria or a target in another compartment that signals mitochondria to generate ROS. To distinguish between these alternatives, isolated rat liver mitochondria were assayed for ROS production by monitoring the oxidation of 2′,7′-dichlorodihydrofluorescin diacetate to of 2′,7′-dichlorofluorescin in the presence and absence of Bz-423. In this assay, the rate of DCF production increased after a lag period during which endogenous reducing equivalents were consumed and the acetate moieties on the probe were hydrolyzed to yield 2′,7′-dichlorodihydrofluorescin, the redox-active species.

[4] = system: panel of cells in Table 2; assay: Antiproliferation against the panel of cells, 3 d; assay type: cell-based; conditions: after 3 d
[5] = system: cells; assay type: cell-based
[6] = biological target: T2, human OSCP (Homo sapiens, UniProt P48047); assay: Quenching of intrinsic OSCP fluorescence on titration (binding isotherm); conditions: Bz-Cl, binds less tightly
T2 construct: made in house; host or cells: E. coli
Excerpt: Oligomycin is a macrolide natural product that binds to the mitochondrial F1F0-ATPase, induces a state 3 to 4 transition, and as a result, generates ROS (e.g., O2^−). In preferred embodiments, the present invention binds the OSCP component of the mitochondrial F1F0-ATPase. In certain embodiments, screening assays of the present invention permit detection of binding partners of the OSCP. OSCP is an intrinsically fluorescent protein. In certain embodiments, titrating a solution of test compounds of the present invention into an E. Coli sample overexpressed with OSCP results in quenching of the intrinsic OSCP fluorescence. In other embodiments, fluorescent or radioactive test compounds can be used in direct binding assays. In other embodiments, competition binding experiments can be conducted. In this type of assay, test compounds are assessed for their ability to compete with Bz-423 for binding to the OSCP. In some embodiments, the compounds of the present invention cause a reduced increase in cellular ROS levels and reduced apoptosis in cells through regulation of the OSCP gene (e.g., altering expression of the OSCP gene). In further embodiments, the present invention functions by altering the molecular motions of the ATPase motor.
To determine if Bz-423 indeed binds to the OSCP and the affinity of the interaction, human OSCP was overexpressed in E. coli. […]

[7] = system: ornithine decarboxylase (ODC); assay: ODC activity in treated cells, conversion of 3H-ornithine to putrescine; assay type: cell-based; conditions: cells treated 4 h
Experimental: In these experiments, the conversion of ornithine to putrescine was quantified using ^3H-ornithine. For comparisons, control cells were treated with vehicle control or difluoromethyl ornithine (DFMO), a potent inhibitor of ornithine decarboxylase (like Bz-423, DFMO is a potent anti-proliferative agent). […] The reduction in ODC activity was paralleled by a decrease in ODC protein levels measured under the same conditions.
As described above, Bz-423 induced apoptosis was signaled by an ROS response that arose from MRC complex III as a result of the state 3 to 4 transition. It was next sought to determine if the ROS response, critical for apoptosis, also mediated these effects on ODC. If the ROS was required for the decrease in ODC activity, it would likewise be implicated as potentially part of the anti-proliferative response to Bz-423. To test this, Ramos cells were treated with Bz-423, DFMO, or vehicle control for 4 h. In parallel, a second group of cells was pre-incubated with MnTBAP to limit the ROS and then cultured with Bz-423, DFMO, and vehicle control.

[8] = system: Ramos B cells; assay type: cell-based, human; conditions: micromolar FK506
[9] = Ramos B cells, 24 h, propidium iodide exclusion, flow cytometry, error ±5%, read-out: EC50 (μM), cell death

T2 sequence (P48047 24-213): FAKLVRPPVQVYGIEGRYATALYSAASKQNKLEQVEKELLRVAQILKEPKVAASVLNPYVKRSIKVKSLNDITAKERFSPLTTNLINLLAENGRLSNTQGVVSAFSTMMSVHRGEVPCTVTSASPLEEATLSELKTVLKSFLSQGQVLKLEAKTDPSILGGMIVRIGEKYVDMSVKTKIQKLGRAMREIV

Q: `CN1C(=O)CN=C(c2ccc(Cl)cc2)c2cc(Cl)ccc21` [4-Cl-diazepam, 4-chlorodiazepam] was tested. Which “Inhibition of mitochondrial ATPase activity” value [1] did it give?
A: do not significantly inhibit

Q: `CN1C(=O)CN=C(c2ccc(O)cc2)c2cc(Cl)ccc21` [Compound 1] was tested. Which EC50 [2, 9] did it give?
A: > 80 µM

Q: What does the source list for antimycin A [reference compound]?
A: Increase in rate of ROS production versus control ([3]; state 3 respiration, aerobic, after induction phase, slopes compared to control): nearly two-fold; ROS production in state 4 mitochondria ([3]; state 4 respiration): is active

Q: How did the EC50 [2, 9] turn out when `CN1C(=O)C(Cc2ccc3ccccc3c2)N=C(c2ccccc2)c2cc(Cl)ccc21` (centres unmarked) [Compound 2] was run?
A: > 80 µM

Q: What does the source list for `CN1C(=O)C(Cc2ccc3ccccc3c2)N=C(c2ccc(Cl)cc2)c2cc(Cl)ccc21` (centres unmarked) [Bz-Cl]?
A: Reduction of proliferation compared with Bz-423 [4]: comparable ED50 values; Decrease of cytotoxic activity compared to Bz-423 [5]: ~80%; Kd [6]: ~5 µM; Effect on ODC activity [7]: inhibited ODC activity

Q: `Cc1cc(C2=NC(Cc3ccc4ccccc4c3)C(=O)N(C)c3ccc(Cl)cc32)ccc1O` (centres unmarked) [Compound 16] was tested. Which “Cytotoxic potency compared with Bz-423” value [2] did it give?
A: does not alter the activity

Q: What about the EC50 ([2]; assessed as described in Table 1, read-out: EC50, cell death) of the same compound?
A: 3 µM

Q: And the “Inhibition of compound-induced cell death by FK506” value [8]?
A: ≈ 60%

Q: Which EC50 ([2]; Homo sapiens, Ramos B cells, 24 h, propidium iodide exclusion, flow cytometry, error ±5%, read-out: EC50 (μM), cell death) does the source give for `CCC(C)N(C)C(=O)c1cc2ccccc2c(-c2ccccc2Cl)n1` (centres unmarked) [PK11195, reference compound] here?
A: > 80 µM

Q: And the “Inhibition of mitochondrial ATPase activity” value [1]?
A: do not significantly inhibit
